# In patent EP1043020A1, “MEDICINAL COMPOSITION FOR PERCUTANEOUS ADMINISTRATION” (priority 1997, dated 1999):
# Where two headings read alike, the source gives them in different places.
# Tests used:
# [1] = in vitro skin permeability test in pig; format: in vitro ADME, Yucatan miniature pig
# [2] = not given; remark: listed apart in the source
structure (smiles),measurement,setting,value
"CC(=N)N1CC[C@H](Oc2ccc([C@H](Cc3ccc4ccc(C(=N)N)cc4c3)C(=O)O)cc2)C1.Cl.O.O.O.O.O [compound A, (2S)-2-[4-[((3S)-1-acetimidoyl-3-pyrrolidinyl)oxy]phenyl]-3-(7-amidino-2-naphthyl)propionic acid hydrochloride pentahydrate]",Percutaneous absorption enhancing effect,[1],1.0
same,Percutaneous absorption enhancing effect,,1.0
same,Q24 (cumulative skin permeation amount of compound A per unit area for 24 hours),,709.05 ± 76.18 µg/cm^2
same,Q48 (cumulative skin permeation amount of compound A per unit area for 48 hours),"[2]; human skin (2): horny, epidermal, dermal and some fat layers, approximately 1 mm, freeze-stored, thawed, fat removed, donor: compound A 50 mg/mL with enhancer, mean ± S.E., n=2 or 3",(2) 3 ± 1 µg/cm^2
same,Percutaneous absorption enhancing effect,"[2]; human skin (2), ratio of Q48 of compound A with enhancer to that without enhancer (3 ± 1)",1.0
